Data taken from patent US20190328763A1, “A LIPID NANOPARTICLE FOR CARRYING ANTISENSE OLIGONUCLEOTIDES INHIBITING BCL-2 AND METHOD FOR PREPARING THE SAME” (NANJING LUYE PHARMACEUTICAL CO., LTD., priority 2016, published 2019).
pIC50: −log10 of the molar value. Read-outs that look alike come from different tables or passages of the source. d = 2'-deoxy (DNA); m = 2'-O-methyl

Tests used:
Type in all cases: cell-based
[1] = system: bcl-2 messenger RNA; assay: Gene level (Bcl-2) G3139 regulation experiment, Real-Time-PCR, A549 lung cancer cells; settings: for Ratio (bcl-2/β-actin): 1 μM G3139, 4 h incubation then 48 h culture, control group 100%
Method: (§1) (1) We will place cancer cells, such as A549 cells, KB cells, and LNCaP prostate cancer cells in 6-well plates and make the cells grow in an RPMI1640 culture solution containing 10% fetal calf serum to allow the cells to grow overnight to achieve a plating rate of 80%.
(§2) (3) After incubation in an environment of 37 degrees and 5% CO2 for 4 h, the cells will be transferred to a fresh culture solution and the culture will last for 48 h. Cells were collected, lysed, and extracted RNA according to standard methods.
(§3) (4) We will analyze the levels of bcl-2 messenger RNA in each group with the Real-Time-PCR technology, and we can finally quantify the expression of bcl-2 after treatment in each group according to the standard methods of reagent suppliers.

[2] = system: bcl-2 messenger RNA; assay: Gene level (Bcl-2) G3139 regulation experiment, Real-Time-PCR, KB cancer cells; settings: for Ratio (bcl-2/β-actin): 1 μM G3139, 4 h incubation then 48 h culture, control group 100%
Method: as §1, §2, §3
By designing different sample groups, we regulate the levels of bcl-2 in KB cells.

[3] = system: bcl-2 messenger RNA; assay: Gene level (Bcl-2) G3139 regulation experiment, Real-Time-PCR, LNCaP prostate cancer cells; settings: for Ratio (bcl-2/β-actin): 1 μM G3139, 4 h incubation then 48 h culture, control group 100%
Method: as §1, §2, §3

[4] = system: A549 cells; assay: A549 lung cancer cytotoxicity test (MTS); settings: Homo sapiens, paclitaxel 1 nmol/L-100 μmol/L, antisense oligonucleotide fixed 10 μmol/L
Method: (1) We placed A549 cells in 96-well plates, and made the cells grow in an RPMI1640 culture solution containing 10% fetal calf serum to allow the cells to grow overnight to achieve a plating rate of 60-70%.
(2) A toxicity test of multiple paclitaxel (PTX) concentration gradients (1 nmol/L-100 μmol/L) and antisense oligonucleotide concentrations (10 μmol/L) in each group was conducted with each concentration group on the second day, and each concentration group was incubated in a 37 degree and 5% CO2 environment.
(3) 20 ul of MTS reagent (a novel tetrazole compound) was added at different time points 24 h, 48 h, and 72 h, and the detection was performed at a wavelength of 490 nm and the results were as shown in the following table: […]

| Compound | Ratio (bcl-2/β-actin) [1] [%] | Ratio (bcl-2/β-actin) [2] [%] | Ratio (bcl-2/β-actin) [3] [%] | gene-level down-regulation of bcl-2 ([1]; 1 μM G3139) [%] | gene-level down-regulation of bcl-2 ([2]; 1 μM G3139) [%] | gene-level down-regulation of bcl-2 ([3]; 1 μM G3139) [%] | pIC50 ([4]; 24 h, read-out: IC50 after 24 h) | pIC50 ([4]; 48 h, read-out: IC50 after 48 h) | pIC50 ([4]; 72 h, read-out: IC50 after 72 h) |
| --- | --- | --- | --- | --- | --- | --- | --- | --- | --- |
| 5′-TCT CCC AGC GTG CGC CAT-3′ (antisense TCTCCCAGCGTGCGCCAT; DNA, all phosphorothioate, methylation of C not given here) [free G3139] | 88.75 | 95.31 | 93.15 |  |  |  |  |  |  |
| 5′-UCU CCC AGC GTG CGC CAU-3′ (antisense UCUCCCAGCGTGCGCCAU; sugars from the 5' end m3 d12 m3, all phosphorothioate, methylation of C not given here) [free 2′-O-Me modified G3139] | 93.29 | 89.04 | 94.89 | 6.71 | 10.96 | 5.11 |  |  |  |
| CC(=O)O[C@H]1C(=O)[C@@]2(C)[C@H]([C@H](OC(=O)c3ccccc3)[C@]3(O)C[C@H](OC(=O)[C@H](O)[C@@H](NC(=O)c4ccccc4)c4ccccc4)C(C)=C1C3(C)C)[C@]1(OC(C)=O)CO[C@@H]1C[C@@H]2O [Paclitaxel (PTX) alone, Paclitaxel] |  |  |  |  |  |  | 7.12 | 7.55 | 7.75 |
